pKd: −log10 of the molar value. Where two headings read alike, the source gives them in different places.
Assays:
Mtb H37Rv [1] = conditions: previous results ref 8; cited from earlier work
[2] = tested on: THP-1-derived macrophages
Mtb H37Rv [3] = format: cell-based, Mycobacterium tuberculosis H37Rv
[4] = target: PknG (kinase and rubredoxin domains) (Mycobacterium tuberculosis, UniProt P9WI73); experiment: Intrinsic tryptophan fluorescence quenching; format: binding
Sequence of PknG (kinase and rubredoxin domains) (P9WI73 74-405): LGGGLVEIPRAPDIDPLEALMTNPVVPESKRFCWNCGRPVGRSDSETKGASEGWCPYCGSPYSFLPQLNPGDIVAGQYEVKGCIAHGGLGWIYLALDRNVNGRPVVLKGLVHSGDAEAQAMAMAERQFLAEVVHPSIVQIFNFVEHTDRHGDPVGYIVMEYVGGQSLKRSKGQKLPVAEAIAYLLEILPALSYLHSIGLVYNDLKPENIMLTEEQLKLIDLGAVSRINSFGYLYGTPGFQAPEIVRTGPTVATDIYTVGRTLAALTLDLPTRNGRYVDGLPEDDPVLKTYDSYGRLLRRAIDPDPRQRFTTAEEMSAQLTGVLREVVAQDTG

SMILES: NC(=O)c1c(NC(=O)C2CC2)sc2c1CCCC2 [AX20017]
- inhibitory activity on intracellular survival of Mtb within macrophage cells (Mtb H37Rv [1]): very similar inhibitory activity

SMILES: NC(=O)c1c(N)c(C(=O)c2ccc(F)cc2)n2ccccc12 [B1]
- effect on cell viability [2]: none of the compounds showed adverse effects
- Mtb H37Rv intracellular survival (Mtb H37Rv [3]): significant decrease

SMILES: NC(=O)c1c(N)c(C(=O)c2cccs2)n2ccccc12 [B3]
- pKd [4]: 5.44

SMILES: NC(=O)c1c(N)c(C(=O)c2ccc(Cl)c(Cl)c2)n2ccccc12 [B4]
- pKd [4]: 4.89

SMILES: CC(C)c1ccc(C(=O)c2c(N)c(C(N)=O)c3ccccn23)cc1 [T1]
- effect on cell viability ([2]; 10 μM, 3, 24 and 48 h): none of the compounds showed adverse effects
- Mtb H37Rv intracellular survival (Mtb H37Rv [3]; 1 and 10 μM, 24 h and 48 h, […]): significant decrease

— article PMC9344462 (Journal of Medicinal Chemistry, 2022)
